From patent US20210147842A1, “METHODS AND COMPOSITIONS FOR INHIBITING NECROPTOSIS IN NEUROVASCULAR AND/OR NEURODEGENERATIVE DISEASES OR DISORDERS” (President and Fellows of Harvard College, priority 2019, published 2021)
Peptide text beside a SMILES is read from it. * marks the point of attachment. Cbz = O=C(OCc1ccccc1)*

How the values were obtained:
Format in all cases: cell-based, mouse
A20 = A20 protein level and degradation in bEnd.3 cells (western blot, cycloheximide chase); conditions: for A20 protein levels in Nat1-KD cells: Nat1-KD bEnd.3 cells, chloroquine 10 uM, E64d 5 ug/ml, sodium acetate over 24 h
Method: (§1) Nat1-KD in bEnd.3 cells were conducted by lentivirus transfection with Nat1 shRNA. Ctrl group was transfected with lentivirus expressing scrambled shRNA. The efficiency of Nat-1 KD was confirmed by western blotting (WB). TNFα(100 ng/ml) was applied in Ctrl or Nat-KD cells for 24 h with or without Ripk1 inhibitor, Nec1s (10 uM). Cell death was quantified with SYTOX green staining. […] Using Tandem Mass Tag (TMT) isobaric labeling mass spectrometry (MS), we identified 7707 proteins in Nat1-KD and Ctrl bEND.3 cells. […] Nat1-KD or Ctrl bEnd.3 cells were treated with Flag-TNFα (50 ng/ml) as the indicated time course. Ripk1 activation was examined by the blotting of p-S166 Ripk1 for cell lysates.
Panels b and c show bEnd.3 cells treated with cycloheximide (CHX, 250 ug/ml) to investigate the degradation kinetics of A20. […] Panels e and f show Chloroquine (CQ, 10 uM) and E64d (5 ug/ml) applied for inhibiting lysosomal protein degradation.
(§2) Since A20 is an important suppressor of RIPK1 activation, RIPK1 activation and Complex I assembly were next assessed in Nat1-KD or Ctrl bEnd.3 cells treated with TNFα.
To understand the mechanism by which A20 is decreased in Nat1-KD cells, it was first assessed whether this alteration was occurring at the protein or mRNA level. […] Nat1-KD and Ctrl bEnd.3 cells were treated with cycloheximide to investigate the kinetics of A20 degradation.

Nat1 mRNA = Nat1 mRNA expression in bEnd.3 cells; conditions: for insulin-induced Nat1 mRNA up-regulation: applied half an hour prior to insulin, MK-2206 5 uM, rapamycin 250 nM, oligomeric Aβ1-42 100 nM
Excerpt: FIG. 7: N-acetyltransferase 1 (Nat1) expression decreases in the brain ECs of AD. […] Fluorescence activated cell sorting (FACS) was used to isolate ECs (CD31^high and CD45^low) from single cell suspensions of brain tissues. The differentially expressed genes between APP/PS1 and WT groups were compared using edgeR and 116 genes were identified. […] Panels c and d show the expression of Nat1 protein (mouse)/Nat2 protein (human) in brain microvessels decreases during AD pathogenesis. Microvessels from mouse or human brains were isolated as described in Munikoti, et al. Journal of neuroscience methods 207, 80-85 (2012) and Boulay et al. Journal of visualized experiments: JoVE, e53208 (2015). […] Different concentrations of insulin were applied into the culture medium for 18 h. […] MK-2206(5 uM, Akt inhibitor), Repamycin (250 nM, mTOR inhibitor) or oligomeric Aβ1-42 (100 nM) was applied to the culture medium of bEnd.3 cells half an hour prior to the treatment of insulin.
To understand the mechanisms that mediate cerebral EC death and dysfunction in the pathogenesis of AD, fluorescence-activated cell sorting (FACS) was used to isolate ECs from the cerebrum of wild-type (WT) and APPswePSEN1dE9 (APP/PS1) mice (5-6 months of age). RNA sequencing (RNAseq) was used to profile gene expression between these groups, and differential gene expression was analyzed using edgeR (as described in Robinson, M. D., et al. Bioinformatics 26, 139-140 (2010)) (FIG. 7A). […] The decrease in Nat1 mRNA expression in cerebral ECs during AD pathogenesis was further confirmed by quantitative PCR (qPCR) (FIG. 7B). […] To validate the relevance of this finding in human AD pathogenesis, protein levels of NAT2 (the human homolog of mouse NAT1) in microvessels isolated from the brains of AD patients were assessed and compared to age-matched controls. […] To determine whether Nat1 expression might also be insulin-sensitive in immortalized mouse cerebral ECs (bEnd.3 cells), it was assessed whether increased concentrations of insulin could upregulate Nat1 (FIG. 7E).

bEnd.3 cells = test: TNFα-induced cell death in bEnd.3 cells (SYTOX green); conditions: Nat1-KD bEnd.3 cells, TNFα 100 ng/ml; Nec1s 10 uM, 24 h; sodium acetate in culture medium
Method: Nat1-KD in bEnd.3 cells were conducted by lentivirus transfection with Nat1 shRNA. Ctrl group was transfected with lentivirus expressing scrambled shRNA. The efficiency of Nat-1 KD was confirmed by western blotting (WB). […] Cell death was quantified with SYTOX green staining. […] Ripk1 activation was examined by the blotting of p-S166 Ripk1 for cell lysates.
Mitochondria was stained with MitoTracker and imaged in live cells. […] For lysine acetylation, we first of all adjusted the protein concentrations to equalize A20 input in cell lysates of ctrl and Nat1-KD groups. Anti-acetylated lysine antibody was used for IP and anti-A20 antibody was used for WB.

[1] = system: acetyl coenzyme A (acetyl-CoA); test: Acetyl-CoA concentration in bEnd.3 cells; conditions: Nat1-KD bEnd.3 cells, sodium acetate over 24 h
Method: FIG. 9A-H: Decreased acetylation of A20 promotes the susceptibility of Nat-1 KD cells to TNFα induced cell death. […] Mitochondria was stained with MitoTracker and imaged in live cells. The scale bar represents 20 and 5 um, respectively. […] For N-terminal acetylation, subtiligase reaction as described in Yi et al. Cell 146, 607-620 (2011) was used. Biotin was added into the free N-terminal residue. […] For lysine acetylation, we first of all adjusted the protein concentrations to equalize A20 input in cell lysates of ctrl and Nat1-KD groups. Anti-acetylated lysine antibody was used for IP and anti-A20 antibody was used for WB. […] Nat1-KD bEnd.3 cells were treated with flag-TNFα (100 ng/ml) as the indicated time course. […]
Analysis of Nat1 knockout mice previously reported increased mitochondrial damage and fragmentation (Camporez, J. P. et al. Proceedings of the National Academy of Sciences of the United States of America 114, E11285-E11292 (2017)). […] Since Nat1 deficiency affects metabolism which may affect the cellular levels of acetyl-CoA, the concentration of total acetyl-CoA in Nat1-KD cells was determined. […] Further, supplementation with sodium acetate is also able to rescue the hyperactivation of RIPK1 in Nat1-KD cells in response to TNFα, as measured by RIPK1 ubiquitination (FIG. 9G). […]

RIPK1 = RIPK1 activation (p-S166, ubiquitination in complex I) in TNFα-treated bEnd.3 cells; conditions: Nat1-KD bEnd.3 cells, sodium acetate 100 mM, flag-TNFα 100 ng/ml
Method: as §1
Mitochondria was stained with MitoTracker and imaged in live cells. […] For N-terminal acetylation, subtiligase reaction as described in Yi et al. Cell 146, 607-620 (2011) was used. Biotin was added into the free N-terminal residue. […] For lysine acetylation, we first of all adjusted the protein concentrations to equalize A20 input in cell lysates of ctrl and Nat1-KD groups. Anti-acetylated lysine antibody was used for IP and anti-A20 antibody was used for WB. […]
as §2

Compound: CCOC(=O)[C@H]1O[C@@H]1C(=O)N[C@@H](CC(C)C)C(=O)NCCC(C)C [E64D]
- A20 protein levels in Nat1-KD cells (A20): rescued

Compound: CC(C)C[C@@H](C=O)NC(=O)[C@H](CC(C)C)NC(=O)[C@H](CC(C)C)NC(=O)OCc1ccccc1 [MG132] (Cbz-Leu-Leu-Leu-aldehyde)
- protein expression of A20 (A20; both Ctrl and Nat1-KD bEnd.3 cells, MG132 10 uM): reduced

Compound: NC1(c2ccc(-c3nc4ccn5c(=O)[nH]nc5c4cc3-c3ccccc3)cc2)CCC1 [MK-2206]
- insulin-induced Nat1 mRNA up-regulation (Nat1 mRNA): negated

Compound: CN1C(=O)NC(Cc2c[nH]c3c(Cl)cccc23)C1=O (centres unmarked) [Nec-1s]
- TNFα-induced cell death in Nat1-KD cells (bEnd.3 cells): rescued

Compound: CCN(CC)CCCC(C)Nc1ccnc2cc(Cl)ccc12 (centres unmarked) [chloroquine]
- A20 protein levels in Nat1-KD cells (A20): rescued

Compound: CC(=O)[O-].[Na+] [sodium acetate]
- acetyl-CoA in Nat1-KD cells [1]: rescue
- hyperactivation of RIPK1 in response to TNFα, as measured by RIPK1 ubiquitination (RIPK1): rescue
- A20 protein levels in Nat1-KD cells (A20): rescue
- TNFα-induced cell death in Nat1-KD cells (bEnd.3 cells): rescues

Compound: insulin: exogenous insulin applied into the culture medium
- Nat1 mRNA expression (Nat1 mRNA; different concentrations in culture medium, 18 h): increases

Compound: oligomeric Aβ1-42: oligomeric amyloid beta 1-42
- insulin-induced Nat1 mRNA up-regulation (Nat1 mRNA): blocked
